In patent publication US20180333371A1, “CURCUMIN AND RESVERATROL FOR CHRONIC INFLAMMATION” (DSM IP Assets B.V., priority 2015, published 2018):

Tests used:
Type in all cases: cell-based, Sprague Dawley rat
[1] = tested on: PGE2 release from primary microglia; test: Synergism analysis (median-effect principle, combination index, ComboSyn) of PGE2 release inhibition
[2] = tested on: PGE2 release from primary microglia; test: LPS-stimulated PGE2 release by primary microglia (ELISA); details: for effect on PGE2 release: FIG. 2A
Text: (§1) Microglial Harvesting and Culture. All experiments involving animals were approved by the Animal Care and Use Committee established at Bolder Biopath, Inc. (Boulder, Colo.). Primary microglial cultures were derived from neocortical tissue of E22 Sprague Dawley rat pups taken from timed-pregnant dams (Charles River) by Caesarean section. Briefly, the pup brain cortices were isolated in Hibernate EB (Brain Bits; Springfield, Ill.). The samples were then transferred to Hibernate E (without Ca; Brain Bits; Springfield, Ill.) and washed twice with fresh Hibernate E (−Ca). The tissue was next digested in Hibernate E (−Ca) containing 0.5% trypsin (Sigma) for 15 min at 37° C.). The overlying solution was removed, and the trypsin reaction was quenched by washing the settled tissue with Hibernated E (—Ca) containing 20% heat-inactivated fetal bovine serum (FBS; Hyclone).
The tissue was triturated into single cells, and the suspension was filtered through a 70-μm cell strainer. Cell numbers and viability were consistently greater than 95% as determined using trypan blue (0.4%; Fisher Scientific) and a Countess automated cell counter (Life Technologies, Grand Island, N.Y.). Cells were seeded into T-75 flasks (VWR) at 8×10^6 cells/flask in HiGlutaXL Dulbecco's Modified Eagle Medium (DMEM, 4.5 g/L glucose, plus glutamine; HyClone) containing 100 μg/mL penicillin, 100 μg/mL streptomycin, 0.5 ng/mL amphotericin (CellnTec) and 1 mM sodium pyruvate. The media was changed on day 3 in vitro, and the cells were fed every 4-5 days while in the flasks. At day 14 in vitro, mouse granulocyte macrophage colony stimulating factor (mGM-CSF; R&D Systems; Minneapolis, Minn.) was added at a final concentration of 5 ng/mL to stimulate microglial differentiation.
(§2) Cell Stimulation and Cytokine Assays. […] The concentration of prostaglandin E2 (PGE2) in the supernatant was measured by ELISA (Cayman Chemical). The concentrations of tumor necrosis factor-α (TNF-α), interleukin-1β (IL-1β) and interleukin-6 (IL-6) in the supernatant were determined by multiplex ELISA (Quansys Biosciences; Logan, Utah). […]

[3] = tested on: TNF-α release by primary microglia; test: LPS-stimulated TNF-α release by primary microglia (multiplex ELISA); details: 0-250 μM, FIG. 2B
Text: as §1, with “The overlying solution was removed, and the trypsin reaction was quenched by washing the settled tissue with Hibernated E (—Ca) containing 20% heat-inactivated fetal bovine serum (FBS; Hyclone).” left out
(§3) The tissue was triturated into single cells, and the suspension was filtered through a 70-μm cell strainer. Cell numbers and viability were consistently greater than 95% as determined using trypan blue (0.4%; Fisher Scientific) and a Countess automated cell counter (Life Technologies, Grand Island, N.Y.). […]
as §2

[4] = tested on: IL-1β release by primary microglia; test: LPS-stimulated IL-1β release by primary microglia (multiplex ELISA); details: 0-250 μM, FIG. 2C
Text: as §1, with “The overlying solution was removed, and the trypsin reaction was quenched by washing the settled tissue with Hibernated E (—Ca) containing 20% heat-inactivated fetal bovine serum (FBS; Hyclone).” left out
as §3, §2

Oc1ccc(C=Cc2cc(O)cc(O)c2)cc1 [Resveratrol, resveratrol]
Dose reduction index (DRI) ([1]; in combination resveratrol 2.25 μM + curcumin C3 7 nM, FIG. 4): 42.76 | decrease in concentration that would still have a synergistic effect in combination ([1]; relative to 2.25 μM resveratrol / 7 nM curcumin C3): 43% | effect on PGE2 release ([2]; 75 μM): significantly inhibited | effect on PGE2 release ([2]; 250 μM): significantly inhibited | IC50 ([2]; Rattus norvegicus, FIG. 3): 2250 nM | significant effects on TNF-α release [3]: not detected | significant effects on IL-1β release [4]: not detected
